From PubChem BioAssay (NCI)
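48-hour exposure; five concentrations; linearly interpolated endpoints. Here, GI50 denotes the concentration required for 50% inhibition of growth. TGI: total growth inhibition.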 *1 amine or outer side, *2 acyl side, *3 side chain or, on linkers, in order; H or OH if unused. Where a SMILES comes first, the peptide text is derived from it. [ ]: non-standard residue; d: D form. The star is where a group is joined. ξ: configuration not given here. NMeY = CN[C@@H](Cc1ccc(O)cc1)C(=O)O; Ethylenediamine = C(CN[*:2])N[*:1]; ξNMeL = CNC(CC(C)C)C(=O)O; Cbz = O=C(OCc1ccccc1)*; Lac = C[C@H](O)C(=O)O; ξA = CC(N)C(=O)O

How the values were obtained:
Assay in all cases: NCI-60 cell line screen, 48 h
A498 renal = test system: A498 renal
A549 NSCLC = test system: A549 NSCLC
ACHN renal = test system: ACHN renal
EKVX NSCLC = test system: EKVX NSCLC
HCT-15 colon = test system: HCT-15 colon
HOP-62 NSCLC = test system: HOP-62 NSCLC
HT29 colon = test system: HT29 colon
IGROV1 ovarian = test system: IGROV1 ovarian
K-562 leukemia = test system: K-562 leukemia
MDA-MB-231 breast = test system: MDA-MB-231 breast
MOLT-4 leukemia = test system: MOLT-4 leukemia
NCI-H226 lung = test system: NCI-H226 lung
NCI-H522 lung = test system: NCI-H522 lung
OVCAR-4 ovarian = test system: OVCAR-4 ovarian
SK-MEL-5 melanoma = test system: SK-MEL-5 melanoma
SK-OV-3 ovarian = test system: SK-OV-3 ovarian
SNB-75 CNS = test system: SNB-75 CNS
SW-620 colon = test system: SW-620 colon
T-47D breast = test system: T-47D breast

SMILES	TGI (A498 renal) [µM]	TGI (A549 NSCLC) [µM]	TGI (ACHN renal) [µM]	TGI (EKVX NSCLC) [µM]	TGI (HCT-15 colon) [µM]	TGI (HOP-62 NSCLC) [µM]	TGI (HT29 colon) [µM]	TGI (IGROV1 ovarian) [µM]	TGI (K-562 leukemia) [µM]	TGI (MDA-MB-231 breast) [µM]	TGI (MOLT-4 leukemia) [µM]	TGI (NCI-H226 lung) [µM]	TGI (NCI-H522 lung) [µM]	TGI (OVCAR-4 ovarian) [µM]	TGI (SK-MEL-5 melanoma) [µM]	TGI (SK-OV-3 ovarian) [µM]	TGI (SNB-75 CNS) [µM]	TGI (SW-620 colon) [µM]	TGI (T-47D breast) [µM]	GI50 (MOLT-4 leukemia) [µM]
Cc1c[nH]c(C(=O)O)c1-c1cccn1-c1ccc(Cl)cc1[N+](=O)[O-]	> 100	> 100	> 100	> 100	> 100	> 100	> 100	> 100	> 100	> 100	> 100	> 100	> 100	> 100	> 100	> 100	> 100	> 100	> 100	–
CCCN(CCC)C(=S)N/N=C(/C)c1ccccc1O	36.3	> 100	> 51.9	> 68.9	> 93.2	52.8	> 100	19.3	> 100	52.8	> 36.9	> 41	25.5	32.3	> 41.2	> 75.5	35.4	> 100	> 28.9	–
N#CCCN(CCC#N)c1ccc(C(N=Nc2ccc(Cl)cc2)=Nc2ccccc2)cc1	34.5	29.1	27.2	24.4	21.2	28.2	34.3	24.6	> 100	33.8	89.4	31.9	30.4	26	5.13	27.1	31.8	39.2	27.2	–
Cc1cc(S(=O)(=O)Nc2nnc3c4ccccc4cnn23)c(S)cc1Cl	> 100	> 100	> 100	> 100	> 100	> 100	> 100	> 100	> 100	> 100	> 100	> 69.3	> 100	> 100	> 100	> 92.7	> 100	> 100	> 100	–
CCC(=O)NI1OC(=O)c2ccccc21	> 100	> 100	> 100	> 100	> 100	> 100	> 100	> 100	> 100	> 100	> 100	> 100	48.8	> 100	> 100	> 100	> 100	> 100	> 100	–
CNCCCNC(=S)Cn1cc(C)c(=O)[nH]c1=O	> 74.8	> 51.3	> 74.3	> 100	> 100	> 100	> 100	> 96.1	> 100	> 100	> 71.7	> 100	> 100	> 100	> 31.4	> 85.7	> 100	> 100	> 100	–
O=C(CC(O)(C(F)(F)F)C(F)(F)Cl)CC(O)(C(F)(F)F)C(F)(F)Cl (stereo not drawn)	9.22	> 10	> 10	> 10	> 10	5.85	> 10	> 10	> 10	5.43	> 10	6.92	8.78	> 10	4.35	4.69	> 10	> 10	> 10	–
CC(=O)c1c(SCCN2CCOCC2)n(-c2ccccc2)c(=S)n(-c2ccccc2)c1=O	26.1	> 57.6	30.1	> 76.3	48.6	> 65	52.9	34.6	> 94.2	37.1	> 62.9	> 73.4	48.4	> 68.9	34.4	> 74.2	> 55.1	49.9	55.5	–
NC(=O)CN1CC(C2=C(O)CN(CC(N)=O)C2=O)=CC1=O	> 100	> 100	> 100	> 100	> 100	> 100	> 100	> 100	> 100	> 100	> 100	> 100	> 100	> 100	> 100	> 100	> 100	> 100	> 100	–
O=[N+]([O-])C1=Cc2cc(Cl)ccc2OC1c1cccc2ccccc12 (stereo not drawn)	3.9	3.85	2.99	2.81	2.95	2.55	1.79	2.87	5.68	6.23	0.817	4.42	2.9	3.09	2.64	4.86	1.95	0.459	2.81	–
COC(=O)C1CCC(=O)N1CN(C(C)=O)c1cc(OC)ccc1OC (stereo not drawn)	> 100	> 100	> 100	> 100	> 100	> 100	> 100	> 100	> 100	> 100	> 100	> 100	> 100	> 100	> 100	> 100	> 100	> 100	> 100	–
CC(=O)NC1C(OC(C)C(=O)NC(C(=O)NC(CCC(=O)NCCCNC2c3ccccc3Nc3cccc([N+](=O)[O-])c32)C(N)=O)C(C)C)C(O)C(CO)OC1(C)OCc1ccccc1 (stereo not drawn)	4.11	1.94	2.19	3.43	1.97	5.87	0.417	3.2	7.65	3.02	2.6	2.95	2.37	3.64	0.405	3.33	4.34	1.81	4.16	–
Cn1c(=O)c2sc3c4sc5c(=O)n(C)c6ccccc6c5c4sc3c2c2ccccc21	> 100	> 100	> 100	> 100	> 100	> 100	> 100	> 100	> 100	> 100	> 100	> 100	> 100	> 100	> 100	> 100	> 100	> 100	> 100	–
COC(=O)CN(CC(O)C(NC(C)=O)C(O)C=O)C(=O)OCc1ccccc1 (stereo not drawn)	> 100	> 100	> 100	> 100	> 31.6	> 100	> 100	> 100	> 100	> 100	> 100	> 100	> 100	> 100	> 100	> 100	> 100	> 100	> 100	–
Cc1ccc(/C=C2/N=C(N/N=C\C(O)C(O)C(O)CO)NC2=O)cc1 (stereo not drawn)	> 100	> 100	> 100	> 100	> 100	> 100	> 100	> 100	> 100	> 100	> 100	> 100	> 100	> 100	> 100	> 100	> 100	> 100	> 100	46.2
O=C1C[C@H](COCc2ccccc2)NC(=O)C[C@H](COCc2ccccc2)NC(=O)C[C@H](COCc2ccccc2)N1	42	> 100	> 100	> 100	> 100	> 100	> 100	> 100	> 100	85.2	> 100	> 100	> 100	> 100	> 100	57.3	8.27	> 100	> 100	–
Cc1c(O)c(OC2OC(CO)C(O)C(O)C2O)cc2c1C=C[C@@H]1[C@@]2(C)C(=O)C[C@]2(C)[C@@H]([C@@](C)(O)C(O)/C=C/C(C)(C)O)[C@H](O)C[C@@]12C (stereo partly drawn)	> 100	> 100	> 100	> 100	> 100	> 100	> 100	> 100	> 100	> 100	> 100	> 100	> 100	> 100	> 100	> 100	> 100	> 100	> 100	–
Cc1ccc(S(=O)(=O)NC(=O)Nc2cccc(S(N)(=O)=O)c2)cc1	> 100	> 100	> 100	> 100	> 100	> 100	> 100	> 100	> 100	> 100	> 100	> 100	> 100	> 100	> 100	> 100	> 100	> 100	> 100	–
CC(C)(C)OC(=O)N1CC(CCl)c2ccc(O)cc21 (stereo not drawn)	4.82	11.3	3.38	6.73	10	12.9	11	13.3	14.2	11.4	8.13	4.53	2.01	1.39	2.77	11.8	3.11	11	12.7	–
c1csc(-c2nccc3c2[nH]c2ccccc23)c1	33.9	49.2	73.7	84.9	48.1	39.2	29.3	37.4	63.8	48.1	51.5	32	41.5	55.1	31.4	41.5	42.8	46.3	63.2	–
O=[N+]([O-])c1ccc(-n2nc3ccc4c(no[n+]4[O-])c3[n+]2[O-])c([N+](=O)[O-])c1	16.3	31.4	5.7	26.6	7.75	10.1	15.1	3.4	5.75	4.64	5.81	23.3	4.03	3.19	7.54	23	23.5	5.4	6.63	–
CNC(=O)N(CCC#N)CCN(C(=O)N(C)C)c1ccccc1	> 100	> 100	> 100	> 100	> 100	> 100	> 100	> 100	> 100	> 100	> 100	> 100	> 100	> 100	> 100	> 100	> 100	> 100	> 100	–
COc1ccc(C[C@@H](C(=O)NCCNC(=O)C(CC(C)C)N(C)C(=O)[C@@H]2CCCN2C(=O)[C@H](C)O)N(C)C(=O)[C@@H]2CCCN2C(=O)[C@H](CC(C)C)NC(=O)C(C)NC(=O)OCc2ccccc2)cc1 (stereo partly drawn) (Cbz-[ξA]LP[NMeY](Me)-{Ethylenediamine-ξNMeL-Pro-Lac})	> 100	> 100	> 100	> 100	> 100	> 100	> 100	> 100	> 100	> 100	> 100	> 100	> 100	> 100	> 100	> 100	> 100	> 100	> 100	–
